Test results: PubChem BioAssay (NCI)
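Following 48 hours of exposure in 96-well plates, responses at five concentrations were used to interpolate endpoints linearly. At the TGI there is no net growth.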

How the values were obtained:
Assay in all cases: inhibition of tumour cell growth, NCI panel, 48 h
[1] = tested on: NCI-H23 lung
[2] = tested on: OVCAR-3 ovarian
[3] = tested on: SF-539 CNS
[4] = tested on: NCI-H460 lung
[5] = tested on: A498 renal
[6] = tested on: UACC-62 melanoma
[7] = tested on: HS 578T breast
[8] = tested on: HT29 colon
[9] = tested on: CAKI-1 renal
[10] = tested on: PC-3 prostate
[11] = tested on: CCRF-CEM leukemia
[12] = tested on: BT-549 breast
[13] = tested on: HCT-116 colon
[14] = tested on: MDA-MB-231 breast
[15] = tested on: COLO 205 colon
[16] = tested on: DU-145 prostate
[17] = tested on: MOLT-4 leukemia
[18] = tested on: MCF7 breast
[19] = tested on: SK-MEL-5 melanoma
[20] = tested on: SNB-75 CNS
[21] = tested on: SR leukemia
[22] = tested on: HCC-2998 colon
[23] = tested on: SN12C renal
[24] = tested on: UO-31 renal
[25] = tested on: KM12 colon
[26] = tested on: NCI-H226 lung
[27] = tested on: OVCAR-4 ovarian
[28] = tested on: HL-60(TB) leukemia
[29] = tested on: SW-620 colon
[30] = tested on: SF-295 CNS
[31] = tested on: K-562 leukemia
[32] = tested on: U251 CNS
[33] = tested on: OVCAR-5 ovarian
[34] = tested on: SNB-19 CNS
[35] = tested on: UACC-257 melanoma
[36] = tested on: OVCAR-8 ovarian
[37] = tested on: SK-MEL-28 melanoma
[38] = tested on: RXF 393 renal
[39] = tested on: SK-OV-3 ovarian
[40] = tested on: SK-MEL-2 melanoma
[41] = tested on: 786-0 renal
[42] = tested on: MALME-3M melanoma
[43] = tested on: RPMI-8226 leukemia
[44] = tested on: SF-268 CNS
[45] = tested on: TK-10 renal
[46] = tested on: NCI-H522 lung
[47] = tested on: HCT-15 colon
[48] = tested on: LOX IMVI melanoma
[49] = tested on: EKVX NSCLC
[50] = tested on: HOP-62 NSCLC
[51] = tested on: MDA-MB-435
[52] = tested on: ACHN renal
[53] = tested on: A549 NSCLC
[54] = tested on: T-47D breast
[55] = tested on: NCI/ADR-RES ovarian
[56] = tested on: M14 melanoma
[57] = tested on: HOP-92 NSCLC
[58] = tested on: MDA-N
[59] = tested on: IGROV1 ovarian

Measured: TGI

CCOc1cc2c(NCCCN(CCO)CCO)ncnc2c(OCC)c1OCC
> 88 µM: [57]
> 100 µM: all other assays above
